Assay results: patent US20040209937A1, “Treatment of excessive osteolysis with indolinone compounds” (SUGEN, INC., priority 2003, published 2004)
“Also recorded” adds a separate entry of the source.

Columns and labels:
[1] = tested on: 435/HAL-luc breast cancer bone metastases; assay: 435/HAL-luc experimental bone metastasis model, bioluminescence imaging of tumor growth; type: in vivo, mice
Description: The MDA-MB-435-HAL-luc breast cancer xenograft model was used to confirm significant inhibition of the growth of breast cancer bone metastases. The presence of live tumor cells was monitored by bioluminescence imaging with the Xenogen IVIS™ system.
The human breast carcinoma cell line 435/HAL was obtained (Pharmacia Corp., St. Louis, Mo.). […] Stable transfection of 435/HAL cells with luciferase (light emitting enzyme of firefly Photinus pyralis) was then performed. The cells were cotransfected with pGL3-control (Promega, Madison, Wis.) and pTK-Hygro (Clontech, Palo Alto, Calif.) at a 1:4 ratio using Lipofectamine 2000 (Invitrogen, Carlsbad, Calif.). Cells were maintained in Hygromycin (200 μg/ml) (Invitrogen) and resistant colonies isolated by ring cloning. Hygro-resistant colonies were screened for luciferase expression using Promega brite-glo reagent, normalized as RLU/μg protein. A subclone with the highest luciferase activity was selected, which we refer to as ‘435/HAL-luc.’ […]
Mice were injected intraperitoneally with 150 mg/kg of luciferin (Xenogen Corp., Alameda, Calif.), followed by anesthetization with Ketamine/Xylazine five minutes later. […] Briefly, mice were placed on the temperature-controlled bed of the imaging chamber and a gray-scale whole body image of the ventral side of the mice was captured, followed by an overlay of a bioluminescence map representing the spatial distribution of photons detected from cleaved luciferin in the cancer cells expressing luciferase. […] The bioluminescent signal was quantified by counting the pixels within the area drawn around each site of photon emission, using a customized version of the IGOR Pro version 4.0 Software (WaveMetrics, Inc., Lake Oswego, Oreg.) called Living Image version 2.11 (Xenogen Corporation, Alameda, Calif.). The sum of all detected photon counts within a region of interest containing the entire cancer lesion was determined. For evaluation of tumor growth inhibition, the Student's t test was used to assess differences in photon emission readings between treated and control groups (p<0.05 was considered significant). […]

serum pyridinoline (PYD) = assay: Serum PYD ELISA in mice bearing 435/HAL-luc bone metastases (osteolysis); type: in vivo
Text: Athymic mice were inoculated with 3×10^6 435/HAL-luc cells into the left ventricle of the heart on day 0. Twenty days later, mice were imaged using the IVIS™ imaging system and placed into two matched groups of 16 mice based on photon emission, a measure of bioluminescence of the cancer. […] Mice were imaged approximately once a week. […] The femur, mandible and spines were collected from mice treated with either compound 1 or its vehicle, and fixed in Streck's Tissue Fixative prior to bone density scanning and histological analysis. Serum was also collected for measurement of collagen breakdown product pyridinoline (PYD) in the circulation.
Serum PYD ELISA: The parental breast carcinoma line MDA-MB-435, is very well characterized as having osteolytic activity (32). […] Serum samples were collected, aliquoted and frozen at −80° C. until analysis. Serum PYD was measured using a competitive enzyme immunoassay kit following the manufacturer's protocol (Serum PYD, Quidel 8019, San Diego, Calif.). Samples were measured in duplicate.

human CSF1R = biological target: T1, human CSF1R (Homo sapiens, UniProt P07333); assay: CSF1R phosphorylation in 3T3-huCSF1R cells (p-CSF1R Western blot after M-CSF stimulation); type: cell-based; conditions: M-CSF stimulated, FIG. 1
T1 construct: expressed in transfected cells; host or cells: NIH3T3 (3T3-huCSF1R)
Description: Cells were lysed immediately after stimulation and lysates spun at 4° C. for 20 mins. Supernatant was transferred to new microfuge tubes. For each sample, 500 μg of total protein was immunoprecipitated overnight with a rabbit polyclonal antibody to bead-conjugated human CSF1R (Santa Cruz Biotechnology, CA). A p-CSF1R Western blot was then performed, using anti-phospho-CSF1R (Tyr723) antibody (Cell Signaling Technology, Beverly, Mass.) at 1:1000 dilution.

osteoclast development = assay: Murine osteoclast development in vitro (bone marrow cells + M-CSF and RANKL, TRAP quantitation); type: cell-based, mice
Description: Bone marrow cells were isolated from female Balb/c mice and cultured either in medium alone or with addition of 10 ng/ml murine M-CSF and 100 ng/ml murine RANK ligand (RANKL) from day 0 to induce osteoclast development. […] Osteoclast development on day 7 was assessed by colorimetric quantitation of tartrate resistant acid phosphatase activity (TRAP) as well as counting TRAP positive cells with >3 nuclei.
TRAP staining and quantitation were performed at day 6.

T1 sequence (P07333 20-972): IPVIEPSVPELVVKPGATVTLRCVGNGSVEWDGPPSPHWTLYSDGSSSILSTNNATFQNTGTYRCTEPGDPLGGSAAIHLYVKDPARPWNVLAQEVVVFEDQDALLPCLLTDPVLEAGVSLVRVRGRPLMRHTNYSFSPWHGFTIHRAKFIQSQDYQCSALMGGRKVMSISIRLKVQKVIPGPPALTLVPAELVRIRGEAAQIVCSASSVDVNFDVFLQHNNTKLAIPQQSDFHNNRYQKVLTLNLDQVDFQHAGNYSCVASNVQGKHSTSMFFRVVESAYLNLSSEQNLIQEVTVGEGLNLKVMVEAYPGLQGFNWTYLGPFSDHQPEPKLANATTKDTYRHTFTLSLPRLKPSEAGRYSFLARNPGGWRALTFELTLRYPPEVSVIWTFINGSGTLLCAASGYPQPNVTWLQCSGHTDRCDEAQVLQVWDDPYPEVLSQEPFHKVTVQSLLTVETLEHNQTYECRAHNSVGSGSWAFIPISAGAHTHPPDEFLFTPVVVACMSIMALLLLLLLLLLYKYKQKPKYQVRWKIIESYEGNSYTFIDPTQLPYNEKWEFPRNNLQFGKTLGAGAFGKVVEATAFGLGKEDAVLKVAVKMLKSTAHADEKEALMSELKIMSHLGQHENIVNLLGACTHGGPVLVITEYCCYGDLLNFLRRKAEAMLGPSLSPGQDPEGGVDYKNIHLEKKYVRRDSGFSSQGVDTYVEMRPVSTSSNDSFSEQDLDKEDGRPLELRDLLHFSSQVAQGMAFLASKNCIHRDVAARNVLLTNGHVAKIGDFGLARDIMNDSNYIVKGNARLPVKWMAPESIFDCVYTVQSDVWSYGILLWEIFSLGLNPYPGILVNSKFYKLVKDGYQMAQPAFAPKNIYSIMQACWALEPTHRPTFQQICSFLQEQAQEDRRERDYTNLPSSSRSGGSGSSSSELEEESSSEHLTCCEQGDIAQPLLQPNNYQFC

`CCN(CC)CCNC(=O)c1c(C)[nH]c(C=C2C(=O)Nc3ccc(F)cc32)c1C` [compound 1, 5-(5-Fluoro-2-oxo-1,2-dihydro-indol-3-ylidenemethyl)-2,4-dimethyl-1H-pyrrole-3-carboxylic acid (2-diethylamino-ethyl)-amide] was tested, and the “live tumor / growth of breast cancer metastases by bioluminescence imaging” value ([1]; MDA-MB-435-HAL-luc xenograft model) was “significant reduction in live tumor; also recorded: inhibits the growth of breast cancer metastases”, the “photon count emission from the mouse bones” value ([1]; at both doses (80 or 40 mg per kg once daily by gavage), FIG. 3) was “greatly decreased” and the “inhibition of tumor growth in bone (photon emission, long bones and mandibles)” value ([1]; day 41, 80 or 40 mg per kg once daily by gavage, p=0.001) was 89%. The “serum PYD mean value” (serum pyridinoline (PYD); 80 mg per kg) was 1.3 ± 0.16 ng/mL, the “reduction of serum PYD levels compared to vehicle treated mice” value (serum pyridinoline (PYD); 14 compound 1 treated vs 12 vehicle treated mice, p=0.047) was 30% and the “osteolysis as measured by pyridinoline levels” value (serum pyridinoline (PYD); mice with breast cancer metastases to bone, FIG. 4) was “less osteolysis”. The “inhibition of CSF1R phosphorylation” value (human CSF1R) was “inhibits CSF1R phosphorylation in a dose-dependent manner; also recorded: inhibits phosphorylation of M-CSF receptors”, the “effect of time of addition of compound (D0, D2 or D4) on osteoclast development” value (osteoclast development; 100 nM and 10 nM, TRAP at day 6, FIG. 2b) was “the later precursor cells are exposed to compound 1, the less inhibitory effect the compound exhibits; also recorded: inhibits an early stage of osteoclast development, but not later stages” and the “concentrations at which development of osteoclasts is inhibited” value (osteoclast development; Balb/c bone marrow cells, M-CSF 10 ng/ml + RANKL 100 ng/ml, day 7, TRAP, FIG. 2a) was 10 to 100 nM. For the same compound, the “inhibition of osteoclast development” value (osteoclast development; in vitro, FIG. 2a) was “inhibits osteoclast development in a dose-dependent manner”.
